Common to all, as to format: functional, cell-based
Test [1] can be described thus: Anti-proliferative activity against human OVMANA cells assessed as cell viability incubated for 24 hrs by CCK-8 assay.
The nature of test [2]: Anti-proliferative activity against human OVTOKO cells assessed as cell viability incubated for 24 hrs by CCK-8 assay.
The test system of another test is TOV21G. In words: Anti-proliferative activity against human TOV-21G cells assessed as cell viability incubated for 24 hrs by CCK-8 assay.

Consider `Cc1cn(CCN2CCN(c3ccccc3-c3cc(C#N)cc(C(=O)NCCCN4CCCC4)c3)CC2)c2ccccc12`, for which the IC50 in test [1] was determined as 1.17 µM; in test [2] it was 0.95 µM; with TOV21G, 1.2 µM.

These data come from ChEMBL document CHEMBL5712093, “The histone methyltransferase SMYD2 is a novel therapeutic target for the induction of apoptosis in ovarian clear cell carcinoma cells” (Oncol Lett, 2020).
